Like-named read-outs stand apart in the source and are kept apart here.
System: HCV Huh-luc/neo-ET replicon cells
Test: Luciferase-Based HCV Replicon Assay (EC50 (1b))
Format: cell-based
Conditions: Hepatitis C virus
Protocol: Luciferase-Based HCV Replicon Assay Protocol (EC50 (1b))
The cell culture component of the assay is performed essentially as described by Bartenschlager et al., Hepatology 2002, 35, 694-703, wherein exponentially growing HCV Huh-luc/neo-ET replicon cells were seeded at 6×10^3 cells/well in 96 well assay plate. 24 hours later the cells were treated with various concentrations of compound or combination of compounds in triplicate using both fixed ratios and checkerboard matrices of test agents and cultured for 72 hours. The luciferase activity in the wells was determined using Bright-Glo reagent (Promega, Madison, Wis.) with a luminometer (Wallac 1420 Multilabel HTS Counter Victor 2). The background control was replicon cells treated with 100 nM BILN-2061, an inhibitor of the HCV protease. % Inhibition was determined for each compound concentration in relation to the negative (no compound) control to calculate the EC50(1b).

[1] = HCV Huh-luc/neo-ET replicon cells, 72 hours, luciferase activity, read-out: EC50 (1b)
[2] = HCV Huh-luc/neo-ET replicon cells, 72 hours, luciferase activity, read-out: EC50(1b) concentration
[3] = Huh-luc/neo-ET, 72 h, read-out: EC50 (1b)
[4] = Huh-luc/neo-ET, 72 h, read-out: EC50(1b) concentration

| Structure (SMILES) | EC50 [1] | EC50 [2] | EC50 [3] | EC50 [4] |
| --- | --- | --- | --- | --- |
| Cc1ccccc1CN1C(=O)C(C2=Nc3ccc(NS(C)(=O)=O)cc3S(=O)(=O)N2)=C(O)[C@@H]2C3CCC(CC3)[C@@H]21 [Example 17, N-{3-[(2S,7R)-6-Hydroxy-3-(2-methyl-benzyl)-4-oxo-3-aza-tricyclo[6.2.2.0^2,7]dodec-5-en-5-yl]-1,1-dioxo-1,2-dihydro-1λ^6-benzo[1,2,4]thiadiazin-7-yl}-methanesulfonamide] | 5 to 25 nM | < 25 nM |  |  |
| CS(=O)(=O)Nc1ccc2c(c1)S(=O)(=O)NC(C1=C(O)[C@@H]3[C@@H]4CC[C@@H](C4)[C@@H]3N(Cc3ccccc3)C1=O)=N2 [Example 20] |  |  | 5 to 25 nM | < 25 nM |
| Cc1ccccc1CN1C(=O)C(C2=Nc3ccc(NS(C)(=O)=O)cc3S(=O)(=O)N2)=C(O)[C@@H]2[C@@H]3CC[C@@H](C3)[C@@H]21 [Example 29, N-{3-[(1S,2S,7R,8R)-6-Hydroxy-3-(2-methyl-benzyl)-4-oxo-3-aza-tricyclo[6.2.1.0^2,7]undec-5-en-5-yl]-1,1-dioxo-1,2-dihydro-1λ^6-benzo[1,2,4]thiadiazin-7-yl}-methanesulfonamide] | 5 to 25 nM | < 25 nM |  |  |
| CS(=O)(=O)Nc1ccc2c(c1)S(=O)(=O)NC(C1=C(O)[C@@H]3[C@H]4CC[C@H](C4)[C@@H]3N(Cc3cccc(F)c3)C1=O)=N2 [Example 21, N-{3-[(1R,2S,7R,8S)-3-(3-Fluoro-benzyl)-6-hydroxy-4-oxo-3-aza-tricyclo[6.2.1.0^2,7]undec-5-en-5-yl]-1,1-dioxo-1,2-dihydro-1λ^6-benzo[1,2,4]thiadiazin-7-yl}-methanesulfonamide] | 5 to 25 nM | < 25 nM |  |  |
| CS(=O)(=O)Nc1ccc2c(c1)S(=O)(=O)NC(C1=C(O)[C@@H]3C4CCC(CC4)[C@@H]3N(CC3CCCCC3)C1=O)=N2 [Example 15, N-{3-[(2S,7R)-3-Cyclohexylmethyl-6-hydroxy-4-oxo-3-aza-tricyclo[6.2.2.0^2,7]dodec-5-en-5-yl]-1,1-dioxo-1,2-dihydro-1λ^6-benzo[1,2,4]thiadiazin-7-yl}-methanesulfonamide] | 5 to 25 nM | < 25 nM |  |  |
| CS(=O)(=O)Nc1ccc2c(c1)S(=O)(=O)NC(C1=C(O)[C@@H]3[C@@H]4CC[C@@H](C4)[C@@H]3N(Cc3ccc(F)c(F)c3)C1=O)=N2 [Example 23, N-{3-[(1S,2S,7R,8R)-3-(3,4-Difluoro-benzyl)-6-hydroxy-4-oxo-3-aza-tricyclo[6.2.1.0^2,7]undec-5-en-5-yl]-1,1-dioxo-1,2-dihydro-1λ^6-benzo[1,2,4]thiadiazin-7-yl}-methanesulfonamide] |  |  | 5 to 25 nM | < 25 nM |
| CS(=O)(=O)Nc1ccc2c(c1)S(=O)(=O)N=C(C1=C(O)C3C4CCC(C4)C3N(Cc3ccc(F)c(Cl)c3)C1=O)N2 [Example 2, N-{3-[(1S,2S,7R,8R)-3-(Chloro-4-fluoro-benzyl)-6-hydroxy-4-oxo-3-aza-tricyclo[6.2.1.0^2,7]undec-5-en-5-yl]-1,1-dioxo-1,4-dihydro-1λ^6-benzo[1,2,4]thiadiazin-7-yl}-methanesulfonamide] |  |  | < 5 nM | < 25 nM |
| CS(=O)(=O)Nc1ccc2c(c1)S(=O)(=O)NC(C1=C(O)[C@@H]3[C@H]4CC[C@H](C4)[C@@H]3N(Cc3ccc(F)c(F)c3F)C1=O)=N2 [Example 24, N-{3-[(1R,2S,7R,8S)-6-Hydroxy-4-oxo-3-(2,3,4-trifluoro-benzyl)-3-aza-tricyclo[6.2.1.0^2,7]undec-5-en-5-yl]-1,1-dioxo-1,2-dihydro-1λ^6-benzo[1,2,4]thiadiazin-7-yl}-methanesulfonamide] | 5 to 25 nM | < 25 nM |  |  |
| CS(=O)(=O)Nc1ccc2c(c1)S(=O)(=O)NC(C1=C(O)C3C4CC(C5CC54)C3N(Cc3ccc(F)cc3)C1=O)=N2 (racemic) [Example 13, (rac-di-exo,di-exo)-N-{3-[3-(4-Fluoro-benzyl)-6-hydroxy-4-oxo-3-aza-tetracyclo[6.3.1.0^2,7.0^9,11]dodec-5-en-5-yl]-1,1-dioxo-1,2-dihydro-1λ^6-benzo[1,2,4]thiadiazin-7-yl}-methanesulfonamide] | < 5 nM | < 25 nM |  |  |
| CC(C)(C)CCN1C(=O)C(C2=NS(=O)(=O)c3cc(NS(C)(=O)=O)ccc3N2)=C(O)[C@@H]2C3CCC(CC3)[C@@H]21 [Example 9, N-{3-[(2S,7R)-3-(3,3-Dimethyl-butyl)-6-hydroxy-4-oxo-3-aza-tricyclo[6.2.2.0^2,7]dodec-5-en-5-yl]-1,1-dioxo-1,4-dihydro-1λ^6-benzo[1,2,4]thiadiazin-7-yl}-methanesulfonamide] | < 5 nM | < 25 nM |  |  |
| Cc1cc(CN2C(=O)C(C3=NS(=O)(=O)c4cc(NS(C)(=O)=O)ccc4N3)=C(O)[C@@H]3C4CCC(CC4)[C@@H]32)ccc1F [Example 11, N-{3-[(2S,7R)-3-(4-Fluoro-3-methyl-benzyl)-6-hydroxy-4-oxo-3-aza-tricyclo[6.2.2.0^2,7]dodec-5-en-5-yl]-1,1-dioxo-1,4-dihydro-1λ^6-benzo[1,2,4]thiadiazin-7-yl}-methanesulfonamide] | < 5 nM | < 25 nM |  |  |
| CS(=O)(=O)Nc1ccc2c(c1)S(=O)(=O)NC(C1=C(O)[C@@H]3C4CCC(CC4)[C@@H]3N(Cc3cc(F)c(F)cc3F)C1=O)=N2 [Example 26] | 5 to 25 nM | < 25 nM |  |  |
| COc1cccc(CN2C(=O)C(C3=NS(=O)(=O)c4cc(NS(C)(=O)=O)ccc4N3)=C(O)[C@@H]3C4CCC(CC4)[C@@H]32)c1 [Example 3, N-{3-[(2S,7R)-6-Hydroxy-3-(3-methoxy-benzyl)-4-oxo-3-aza-tricyclo[6.2.2.0^2,7]dodec-5-en-5-yl]-1,1-dioxo-1,4-dihydro-1λ^6-benzo[1,2,4]thiadiazin-7-yl}-methanesulfonamide] | < 5 nM | < 25 nM |  |  |
| CS(=O)(=O)Nc1ccc2c(c1)S(=O)(=O)NC(C1=C(O)[C@@H]3[C@@H]4CC[C@@H](C4)[C@@H]3N(CC3(C(F)(F)F)CC3)C1=O)=N2 [Example 22, N-{3-[(1S,2S,7R,8R)-6-Hydroxy-4-oxo-3-(1-trifluoromethyl-cyclopropylmethyl)-3-aza-tricyclo[6.2.1.0^2,7]undec-5-en-5-yl]-1,1-dioxo-1,2-dihydro-1λ^6-benzo[1,2,4]thiadiazin-7-yl}-methanesulfonamide] | 5 to 25 nM | < 25 nM |  |  |
| CS(=O)(=O)Nc1ccc2c(c1)S(=O)(=O)NC(C1=C(O)[C@@H]3C4CCC(CC4)[C@@H]3N(Cc3cccc(F)c3)C1=O)=N2 [Example 14, N-{3-[(2S,7R)-3-(3-Fluoro-benzyl)-6-hydroxy-4-oxo-3-aza-tricyclo[6.2.2.0^2,7]dodec-5-en-5-yl]-1,1-dioxo-1,2-dihydro-1λ^6-benzo[1,2,4]thiadiazin-7-yl}-methanesulfonamide] | < 5 nM | < 25 nM |  |  |
| COc1cc(CN2C(=O)C(C3=NS(=O)(=O)c4cc(NS(C)(=O)=O)ccc4N3)=C(O)[C@@H]3C4CCC(CC4)[C@@H]32)ccc1F [Example 7, N-{3-[(2S,7R)-3-(4-Fluoro-3-methoxy-benzyl)-6-hydroxy-4-oxo-3-aza-tricyclo[6.2.2.0^2,7]dodec-5-en-5-yl]-1,1-dioxo-1,4-dihydro-1λ^6-benzo[1,2,4]thiadiazin-7-yl}-methanesulfonamide] | < 5 nM | < 25 nM |  |  |
| CS(=O)(=O)Nc1ccc2c(c1)S(=O)(=O)N=C(C1=C(O)[C@@H]3C4CCC(CC4)[C@@H]3N(Cc3ccc(F)c(F)c3)C1=O)N2 [Example 10, N-{3-[(2S,7R)-3-(3,4-Difluoro-benzyl)-6-hydroxy-4-oxo-3-aza-tricyclo[6.2.2.0^2,7]dodec-5-en-5-yl]-1,1-dioxo-1,4-dihydro-1λ^6-benzo[1,2,4]thiadiazin-7-yl}-methanesulfonamide] | < 5 nM | < 25 nM |  |  |
| CS(=O)(=O)Nc1ccc2c(c1)S(=O)(=O)NC(C1=C(O)[C@@H]3[C@H]4CC[C@H](C4)[C@@H]3N(Cc3ccsc3)C1=O)=N2 [Example 25, N-{3-[(1R,2S,7R,8S)-6-Hydroxy-4-oxo-3-thiophen-3-ylmethyl-3-aza-tricyclo[6.2.1.0^2,7]undec-5-en-5-yl]-1,1-dioxo-1,2-dihydro-1λ^6-benzo[1,2,4]thiadiazin-7-yl}-methanesulfonamide] | 5 to 25 nM | < 25 nM |  |  |
| CS(=O)(=O)Nc1ccc2c(c1)S(=O)(=O)NC(C1=C(O)[C@@H]3C4CCC(CC4)[C@@H]3N(Cc3ccccc3)C1=O)=N2 [Example 12, N-{3-[(2S,7R)-3-Benzyl-6-hydroxy-4-oxo-3-aza-tricyclo[6.2.2.0^2,7]dodec-5-en-5-yl]-1,1-dioxo-1,2-dihydro-1λ^6-benzo[1,2,4]thiadiazin-7-yl}-methanesulfonamide] | < 5 nM | < 25 nM |  |  |
| CS(=O)(=O)Nc1ccc2c(c1)S(=O)(=O)N=C(C1=C(O)[C@@H]3C4CCC(CC4)[C@@H]3N(Cc3ccc(F)cc3F)C1=O)N2 [Example 4, N-{3-[(2S,7R)-3-(2,4-Difluoro-benzyl)-6-hydroxy-4-oxo-3-aza-tricyclo[6.2.2.0^2,7]dodec-5-en-5-yl]-1,1-dioxo-1,4-dihydro-1λ^6-benzo[1,2,4]thiadiazin-7-yl}-methanesulfonamide] | < 5 nM | < 25 nM |  |  |
| CS(=O)(=O)Nc1ccc2c(c1)S(=O)(=O)N=C(C1=C(O)[C@@H]3C4CCC(CC4)[C@@H]3N(Cc3ccccc3Br)C1=O)N2 [Example 6, N-{3-[(2S,7R)-3-(2-Bromo-benzyl)-6-hydroxy-4-oxo-3-aza-tricyclo[6.2.2.0^2,7]dodec-5-en-5-yl]-1,1-dioxo-1,4-dihydro-1λ^6-benzo[1,2,4]thiadiazin-7-yl}-methanesulfonamide] | < 5 nM | < 25 nM |  |  |

Reference: patent US8129368B2, “5,6-dihydro-1H-pyridin-2-one compounds” (priority 2008, dated 2012)
